Columns and labels:
[1] = molecular target: human recombinant CTSC (Homo sapiens (Human), UniProt P53634); assay: CTSC inhibition assay (in vitro), fluorescent substrate GF-AFC; format: biochemical; details: 30 μmol/L GF-AFC, pH 5.0, 25° C.
How it was run: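 Recombinant human CTSC pre-activated with cathepsin L (18° C, 30 min), then preincubated with compound 30 min at 25° C in pH 5.0 MES buffer with 5 mmol/L DTT (0.66 ng/mL CTSC, 0.15% DMSO). Cleavage of 30 μmol/L GF-AFC read after 1 h at 25° C (ex 390/em 505 nm); IC50 by 4-parameter fit.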

[2] = molecular target: CTSC in U937 cells (Homo sapiens (Human), UniProt P53634); assay: Intracellular CTSC inhibition assay (in vitro), LLOMe-induced cell death in U937 cells; format: cell-based; details: 3 hours culture, CellTiter-Glo
Sequence of CTSC in U937 cells (P53634 25-463): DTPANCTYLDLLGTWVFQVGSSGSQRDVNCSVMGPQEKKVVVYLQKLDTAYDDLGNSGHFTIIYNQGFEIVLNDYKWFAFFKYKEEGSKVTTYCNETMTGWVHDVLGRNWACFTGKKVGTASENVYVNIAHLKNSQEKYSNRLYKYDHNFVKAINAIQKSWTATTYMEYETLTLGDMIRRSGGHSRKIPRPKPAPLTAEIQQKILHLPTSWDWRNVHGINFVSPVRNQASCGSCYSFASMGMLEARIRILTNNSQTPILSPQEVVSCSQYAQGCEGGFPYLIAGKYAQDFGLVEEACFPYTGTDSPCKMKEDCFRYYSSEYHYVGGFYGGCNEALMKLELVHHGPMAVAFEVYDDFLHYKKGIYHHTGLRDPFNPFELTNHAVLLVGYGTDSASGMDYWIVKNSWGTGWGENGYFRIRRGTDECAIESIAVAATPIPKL
How it was run: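 U937 cells in RPMI-1640 with 10% FBS were preincubated 30 min with compound ([…], 3-fold dilutions). A 300 μmol/L LLOMe solution was then added, which drives CTSC-dependent cell death, and cells were cultured 3 h. Viability read by CellTiter-Glo luminescence; IC50 from 4-parameter fit.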

Sequence of human recombinant CTSC (P53634 25-134): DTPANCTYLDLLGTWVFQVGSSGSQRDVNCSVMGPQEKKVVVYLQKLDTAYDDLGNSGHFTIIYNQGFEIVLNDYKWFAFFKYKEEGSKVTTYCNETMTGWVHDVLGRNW
Sequence of human recombinant CTSC (P53634 231-394): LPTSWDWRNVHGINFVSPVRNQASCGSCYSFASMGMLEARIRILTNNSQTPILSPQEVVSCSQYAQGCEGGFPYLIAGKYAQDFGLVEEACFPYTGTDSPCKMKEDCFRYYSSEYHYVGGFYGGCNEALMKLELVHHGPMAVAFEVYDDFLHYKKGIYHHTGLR
Sequence of human recombinant CTSC (P53634 395-463): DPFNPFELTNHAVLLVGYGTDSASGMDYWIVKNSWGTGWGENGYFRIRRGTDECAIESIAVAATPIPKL

Row | IC50 [1] [nM] | SMILES | IC50 [2] [nM]
1 | 3.54 | O=C([C@@H]1CC[C@@]2(CCO2)CN1)N1CCC(c2ccc(F)cc2)(c2nnc(C3CCC(F)(F)CC3)o2)CC1 [Example 87] | 4.02
2 | 53.5 | CC(C)C1(c2noc(C3CCC(F)(F)CC3)n2)CCN(C(=O)[C@@H]2CCC3(CC3)CN2)CC1 [Example 46] | 42.5
3 | > 200 | CC(C)C1(c2noc(C3CCC(F)(F)CC3)n2)CCN(C(=O)[C@H]2N[C@H]3CC[C@@H]2[C@H](O)C3)CC1 [Example 38] | 124
4 | 5.72 | O=C([C@@H]1C[C@@H](O)C2(CCC2)CN1)N1CCC(c2noc(C3CCOCC3)n2)(C(F)(F)F)CC1 [Example 61] | 1.75
5 | 13.3 | O=C([C@@H]1C[C@@H](O)C2(CCC2)CN1)N1CCC(C(=O)N2CCO[C@H](C(F)(F)F)C2)(C(F)(F)F)CC1 [Example 39] | 7.18

Further lines, the molecule ahead of its results:

Row | SMILES | IC50 [1] [nM] | IC50 [2] [nM]
6 | CC(C)C1(c2nnc(C3CCC(F)(F)CC3)o2)CCN(C(=O)[C@@H]2C[C@@H](O)C3(CCC3)CN2)CC1 [Example 14] | 1.35 | 4
7 | CC(C)C1(C(=O)N(C)CC2CCC(F)(F)CC2)CN(C(=O)[C@@H]2C[C@@H](O)C3(CCC3)CN2)C1 [Example 17] | 1.01 | 21.4
8 | CC(C)C1(c2nc(C3CC(C)(C)C3)no2)CN(C(=O)[C@@H]2CC[C@@]3(CCO3)CN2)C1 [Example 29] | 1.47 | 11.3
9 | O=C([C@@H]1C[C@@H](O)C2(CCC2)CN1)N1CCC(C(=O)N2CCC(C(F)(F)F)C2)(C(F)(F)F)CC1 (stereo partly drawn) [Example 35] | 3.39 | 6.54

From US12522593B2, “Azacycloalkyl carbonyl cyclic amine compound” (Alivexis, Inc., priority 2022, dated 2026)
